# Legend:
# [1] = target: T1, CCK-1 receptors (Rattus norvegicus, UniProt P30551); assay: Inhibition of binding of [125I]-BH-CCK-8 to isolated rat pancreatic acini; details: for IC50: 30 minutes at 37° C., at least 3 experiments, read-out: IC50, inhibition of binding of [125I]-BH-CCK-8 to isolated rat pancreatic acini
# T1 construct: The pancreatic acini obtained from the outbred male rat pancreas of the Sprague Dawley strain; from tissue; host or cells: isolated pancreatic acini of male Sprague Dawley rats
# T1 sequence (P30551 1-444): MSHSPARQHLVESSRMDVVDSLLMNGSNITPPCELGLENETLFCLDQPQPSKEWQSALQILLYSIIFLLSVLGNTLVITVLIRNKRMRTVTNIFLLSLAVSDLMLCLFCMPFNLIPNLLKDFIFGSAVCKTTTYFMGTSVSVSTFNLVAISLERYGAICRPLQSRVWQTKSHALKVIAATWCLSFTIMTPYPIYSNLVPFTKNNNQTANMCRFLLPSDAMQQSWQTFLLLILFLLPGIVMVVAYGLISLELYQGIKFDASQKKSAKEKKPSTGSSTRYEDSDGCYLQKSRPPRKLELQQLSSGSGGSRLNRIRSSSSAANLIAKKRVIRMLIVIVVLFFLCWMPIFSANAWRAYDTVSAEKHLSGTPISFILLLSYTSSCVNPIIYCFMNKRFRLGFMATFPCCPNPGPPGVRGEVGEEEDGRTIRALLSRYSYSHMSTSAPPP
# Description: The pancreatic acini obtained from the outbred male rat pancreas of the Sprague Dawley strain, were incubated in the presence of radioactive tracers and the compound studied for 30 minutes at 37° C. After having discarded the supernatant, the radioactivity associated with the pellet was determined with a liquid scintillator. The specific binding was determined as the difference between the binding in the absence and in the presence of CCK-8, 1.10^−6M. […] The values of IC50 reported were calculated with the […] of a set of at least 3 experiences for each compound studied.
# [2] = system: CCK-2 receptor; assay: Inhibition of the binding of [125I]-BH-CCK-8 to the cortical membrane of guinea pigs; parameters: species or system guinea pig; details: IC50 CCK-2 (guinea pig cortex) / IC50 CCK-1 (rat pancreatic acini, Table 2)
# Description: (§1) For this purpose binding tests were performed on cerebral cortex of male albino guinea pigs outbred from the Hartley strain, using as marked binder the [^125I]-BH-CCK-8 sulphate, according to the procedure described by Makovec F. [J. Med. Chem. 35, (1992),28].
# (§2) The incubation of the cerebral membranes together with the radioactive tracers and the compounds under study was effected on multi-well plates for 120 minutes at 25° C. Each well contained membrane corresponding to about 0.5 mg of proteins/ml and 25 pM of marked binder in a total volume of 250 micro litres. The specific binding was determined as the difference between the binding in the absence and in the presence of CCK-8, 1.10^−6M. At the end of the incubation a rapid filtration of the plate was performed under vacuum and the radioactivity of the individual filters extracted from the wells was measured with a γ-emission counter. The results obtained are shown in Table 3, in which the tested compounds are indicated, the IC50 calculated with the regression method on a set of at least 3 tests for each compound studied and an index derived from the ratio of the affinity obtained for the two types of receptor CCK-2 and CCK-1.
# [3] = target: T2, CCK-2 receptor (Cavia porcellus, UniProt H0VZC5); assay: as above; parameters: species or system guinea pig; details: 120 minutes at 25° C.; 25 pM marked binder; at least 3 tests
# T2 construct: The incubation of the cerebral membranes together with the radioactive tracers and the compounds under study; from tissue; host or cells: cerebral cortex membranes of male albino Hartley guinea pigs
# T2 sequence (H0VZC5 1-426): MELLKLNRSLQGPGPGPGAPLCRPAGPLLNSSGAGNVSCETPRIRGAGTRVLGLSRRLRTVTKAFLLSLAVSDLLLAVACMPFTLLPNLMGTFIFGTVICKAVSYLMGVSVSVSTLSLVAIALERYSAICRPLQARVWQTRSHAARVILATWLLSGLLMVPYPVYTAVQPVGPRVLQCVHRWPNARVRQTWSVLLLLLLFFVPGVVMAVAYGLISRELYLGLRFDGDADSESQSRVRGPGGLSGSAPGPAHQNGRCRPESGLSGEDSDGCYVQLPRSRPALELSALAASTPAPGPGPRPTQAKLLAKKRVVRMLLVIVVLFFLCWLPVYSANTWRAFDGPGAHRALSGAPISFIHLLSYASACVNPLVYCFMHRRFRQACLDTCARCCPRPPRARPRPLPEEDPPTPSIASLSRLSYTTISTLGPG
# Description: as §1, §2
IC50 [1] [nM],Structure (SMILES),other results
240,"O=C(Nc1ccccc1C(=O)NC(Cc1ccccc1)C(=O)O)c1cc2ccccc2[nH]1 (racemic) [Compound 1, 2 (R,S)-{2-[(1H-indol-2-carbonil)amino]-benzoilamino}-3-phnyl-propionic acid]",–
110,"O=C(Nc1ccccc1C(=O)N[C@H](Cc1ccccc1)C(=O)O)c1cc2ccccc2[nH]1 [Compound 2, 2 (R)-{2-[(1H-indol-2-carbonyl)amino]-benzoylamino}-3-phenyl-propionic acid]",–
7130,"O=C(Nc1ccccc1C(=O)N[C@@H](Cc1ccccc1)C(=O)O)c1cc2ccccc2[nH]1 [Compound 3, 2(S)-{2-[(1H-indol-2-carbonyl)amino]-benzoylamino}-3-phenyl-propionic acid]",–
410,O=C(Nc1ccc(Cl)cc1C(=O)NC(Cc1ccccc1)C(=O)O)c1cc2ccccc2[nH]1 (stereo not shown) [Compound 4],–
170,Cn1c(C(=O)Nc2ccccc2C(=O)NC(Cc2ccccc2)C(=O)O)cc2ccccc21 (stereo not shown) [Compound 5],–
60,O=C(Nc1ccccc1C(=O)NC(Cc1ccccc1)C(=O)O)c1cc2cc(F)ccc2[nH]1 (stereo not shown) [Compound 6],index derived from the ratio of the affinity obtained for the two types of receptor CCK-2 and CCK-1 [2]: 176.6; IC50 [3]: 10600 nM
160,O=C(Nc1ccccc1C(=O)NC(Cc1ccccc1)C(=O)O)c1cc2ccc(F)cc2[nH]1 (stereo not shown) [Compound 7],–
90,O=C(Nc1ccccc1C(=O)NC(Cc1ccccc1)C(=O)O)c1cc2cccc(F)c2[nH]1 (stereo not shown) [Compound 8],–
520,O=C(Nc1ccccc1C(=O)NC(Cc1ccccc1)C(=O)O)c1cc2ccccc2o1 (stereo not shown) [Compound 9],–
780,O=C(Nc1ccccc1C(=O)NC(Cc1ccccc1)C(=O)O)c1cc2ccccc2s1 (stereo not shown) [Compound 10],–
160,Cc1ccccc1CC(NC(=O)c1ccccc1NC(=O)c1cc2ccccc2[nH]1)C(=O)O (stereo not shown) [Compound 11],–
370,Cc1ccc(CC(NC(=O)c2ccccc2NC(=O)c2cc3ccccc3[nH]2)C(=O)O)cc1 (stereo not shown) [Compound 12],–
270,O=C(Nc1ccccc1C(=O)NC(Cc1ccccc1Cl)C(=O)O)c1cc2ccccc2[nH]1 (stereo not shown) [Compound 13],–
280,O=C(Nc1ccccc1C(=O)NC(Cc1cccc(Cl)c1)C(=O)O)c1cc2ccccc2[nH]1 (stereo not shown) [Compound 14],–
1410,O=C(Nc1ccccc1C(=O)NC(Cc1c(Cl)cccc1Cl)C(=O)O)c1cc2ccccc2[nH]1 (stereo not shown) [Compound 15],–
240,COc1cccc(CC(NC(=O)c2ccccc2NC(=O)c2cc3ccccc3[nH]2)C(=O)O)c1 (stereo not shown) [Compound 16],–
160,O=C(Nc1ccccc1C(=O)NC(Cc1ccccc1[N+](=O)[O-])C(=O)O)c1cc2ccccc2[nH]1 (stereo not shown) [Compound 17],–
430,O=C(Nc1ccccc1C(=O)NC(Cc1ccc([N+](=O)[O-])cc1)C(=O)O)c1cc2ccccc2[nH]1 (stereo not shown) [Compound 18],–
180,O=C(Nc1ccccc1C(=O)NC(Cc1ccc(F)cc1)C(=O)O)c1cc2ccccc2[nH]1 (stereo not shown) [Compound 19],–
90,O=C(Nc1ccccc1C(=O)NC(CCCc1ccccc1)C(=O)O)c1cc2ccccc2[nH]1 (stereo not shown) [Compound 24],–
30,Cc1ccccc1CCC(NC(=O)c1ccccc1NC(=O)c1cc2ccccc2n1C)C(=O)O (stereo not shown) [Compound 27],–
120,O=C(Nc1ccccc1C(=O)NC(CCc1ccccc1[N+](=O)[O-])C(=O)O)c1cc2ccccc2[nH]1 (stereo not shown) [Compound 28],–
120,O=C(Nc1ccccc1C(=O)NC(CCc1ccc([N+](=O)[O-])cc1)C(=O)O)c1cc2ccccc2[nH]1 (stereo not shown) [Compound 29],–

IC50 [1] [nM],Structure (SMILES),other results
10,COc1cccc(CCC(NC(=O)c2ccccc2NC(=O)c2cc3ccccc3[nH]2)C(=O)O)c1 (stereo not shown) [Compound 31],index derived from the ratio of the affinity obtained for the two types of receptor CCK-2 and CCK-1 [2]: 340; IC50 [3]: 3400 nM
9,COc1ccccc1CCC(NC(=O)c1ccccc1NC(=O)c1cc2cc(F)ccc2[nH]1)C(=O)O (stereo not shown) [Compound 32],"index derived from the ratio of the affinity obtained for the two types of receptor CCK-2 and CCK-1 [2]: 631.1; IC50 [3]: 5680 nM; affinity for the CCK-1 receptors of the pancreatic acini of rat, in words ([1]; summary of Table 2): nanomolar level"
260,O=C(Nc1ccccc1C(=O)NC(C(=O)O)c1ccccc1)c1cc2ccccc2[nH]1 (stereo not shown) [Compound 33],–
1960,CC(NC(=O)c1ccccc1NC(=O)c1cc2ccccc2[nH]1)C(=O)O (stereo not shown) [Compound 34],–
3080,CCC(NC(=O)c1ccccc1NC(=O)c1cc2ccccc2n1C)C(=O)O (stereo not shown) [Compound 35],–
210,CCCC(NC(=O)c1ccccc1NC(=O)c1cc2ccccc2n1C)C(=O)O (stereo not shown) [Compound 36],–
170,CCCCC(NC(=O)c1ccccc1NC(=O)c1cc2ccccc2n1C)C(=O)O (stereo not shown) [Compound 37],–
10,CCCCCC(NC(=O)c1ccccc1NC(=O)c1cc2ccccc2[nH]1)C(=O)O (stereo not shown) [Compound 38],index derived from the ratio of the affinity obtained for the two types of receptor CCK-2 and CCK-1 [2]: >3000; IC50 [3]: > 30000 nM
20,CCCCCCC(NC(=O)c1ccccc1NC(=O)c1cc2ccccc2[nH]1)C(=O)O (stereo not shown) [Compound 39],index derived from the ratio of the affinity obtained for the two types of receptor CCK-2 and CCK-1 [2]: >1500; IC50 [3]: > 30000 nM
240,CCCCCCCC(NC(=O)c1ccccc1NC(=O)c1cc2ccccc2[nH]1)C(=O)O (stereo not shown) [Compound 40],–
200,CC(C)C(NC(=O)c1ccccc1NC(=O)c1cc2ccccc2[nH]1)C(=O)O (stereo not shown) [Compound 41],index derived from the ratio of the affinity obtained for the two types of receptor CCK-2 and CCK-1 [2]: 137; IC50 [3]: 27400 nM
60,CC(C)CC(NC(=O)c1ccccc1NC(=O)c1cc2ccccc2[nH]1)C(=O)O (stereo not shown) [Compound 42],–
80,CC(C)CCC(NC(=O)c1ccccc1NC(=O)c1cc2ccccc2[nH]1)C(=O)O (stereo not shown) [Compound 43],–
40,CC(C)CCCC(NC(=O)c1ccccc1NC(=O)c1cc2ccccc2[nH]1)C(=O)O (stereo not shown) [Compound 44],–
140,CC(C)CCCCC(NC(=O)c1ccccc1NC(=O)c1cc2ccccc2[nH]1)C(=O)O (stereo not shown) [Compound 45],–
30,CCC(CC)CC(NC(=O)c1ccccc1NC(=O)c1cc2ccccc2[nH]1)C(=O)O (stereo not shown) [Compound 46],index derived from the ratio of the affinity obtained for the two types of receptor CCK-2 and CCK-1 [2]: 89; IC50 [3]: 2670 nM
20,O=C(Nc1ccccc1C(=O)NC(CC1CCCCC1)C(=O)O)c1cc2ccccc2[nH]1 (stereo not shown) [Compound 48],index derived from the ratio of the affinity obtained for the two types of receptor CCK-2 and CCK-1 [2]: 61; IC50 [3]: 1220 nM
40,O=C(Nc1ccccc1C(=O)NC(CCC1CCCCC1)C(=O)O)c1cc2ccccc2[nH]1 (stereo not shown) [Compound 49],–
170,O=C(Nc1ccccc1C(=O)NC(CCCC1CCCCC1)C(=O)O)c1cc2ccccc2[nH]1 (stereo not shown) [Compound 50],–
40,CSCCC(NC(=O)c1ccccc1NC(=O)c1cc2ccccc2[nH]1)C(=O)O (stereo not shown) [Compound 51],–
620,O=C(Nc1ccccc1C(=O)NC(CSc1ccccc1)C(=O)O)c1cc2ccccc2[nH]1 (stereo not shown) [Compound 52],–
30,O=C(Nc1ccccc1C(=O)NC(CSC12CC3CC(CC(C3)C1)C2)C(=O)O)c1cc2ccccc2[nH]1 (stereo not shown) [Compound 53],–
1950,O=C(NC(Cc1ccccc1)C(=O)O)c1ccccc1NC(=O)c1c[nH]c2ccccc12 (stereo not shown) [Compound 55],–

Structure (SMILES),IC50 [1] [nM],other results
O=C(Nc1ccccc1C(=O)N[C@@H](CCc1ccccc1)C(=O)O)c1cc2ccccc2[nH]1 [Compound 22],190,–

# Source: patent publication US7294648B2, “Anthranyl derivatives having an anticholecystokinin activity (anti-cck-1), a process for their preparation, and pharmaceutical use thereof” (Rottapharm S.p.A., priority 2002, dated 2007)
